Reference: US9506933B2, “Method of preparing antigen for acquiring anti-hydrophobic peptide antibody” (TOAGOSEI CO., LTD., priority 2011, dated 2016)
Blank lines part the entries; values can stand above or below the substance they belong to. Ends that are not written are not given here.

Experiments:
Assay type in all cases: physicochemical
[1] = Particle size of FCG24 and FLF23 in 1% Tween 20 suspensions (Countess / dynamic light scattering); details: 1% Tween 20 suspension; dynamic light scattering particle size analyser
[2] = Molecular weight distribution of SPAPP aggregates (centrifugation, spin filters, BCA assay)
Procedure: The molecular weight distribution of SPAPP aggregates in the suspension was measured in accordance with the following procedure.
(i) The suspension was centrifuged at 15,000 rpm for five minutes and divided into supernatant and precipitate. This centrifugation causes particles equal to or larger than about 1 μm to precipitate.
(ii) The supernatant was applied to a molecular weight 100,000 cutoff spin filter (Amicon Microcon YM-100) and caused to pass through the filter by centrifugation.
(iii) The flow-through solution of (ii) was applied to a molecular weight 10,000 cutoff spin filter and caused to pass through the filter by centrifugation.
On each stage of the process described above, the protein concentration of the solution was measured by the BCA protein assay (Thermo Fisher Scientific) using BSA as the standard.
The time from suspension of SPAPP in pure water to addition of various surfactants was changed to confirm that the molecular size distribution of aggregates varies depending on the time. For example, in the case of 1% Tween 20, the insoluble fraction (precipitate) was 5% when the surfactants were added immediately after suspension of SPAPP in pure water, 17% when added after 1.5 hours, and 48% when added after 3 hours.

[3] = Isoelectric point of SPAPP
[4] = Test of solubility of peptide SPAPP to various solvents (visual transparency)
Excerpt: (1) Powdered purified SPAPP was mixed with various solvents at various concentrations to examine solubility.
The term “soluble” used in the following description means a state in which solvent is visually transparent and “insoluble” means a state in which solvent is visually cloudy.

[5] = Molecular size distribution of SPAPP in other nonionic surfactant solutions; details: 1% PEG60 dodecyl ether, Triton X-100 or Nonidet P-40; surfactant added immediately or after 90 minutes
Procedure: It was examined whether SPAPP forms high-molecular-weight aggregates in other nonionic surfactant solutions. PEG60 dodecyl ether (Polypure), Triton X-100, and Nonidet P-40 were used as surfactants at 1% in each case. As was the case with the method of Example 2, each of the surfactants was used for preparing SPAPP suspension and, after the size fractionation using centrifugation and spin-type molecular weight cutoff filters, 10% SDS was added to and mixed with each of fractions to the final concentration of 1% to dissolve the aggregates. The peptide concentrations of the fractions were measured by the BCA assay and the molecular weight distribution of SPAPP aggregates were summarized as shown in FIGS. 6A and 6B. […] In the histograms, “Ppt” indicates peptides removed by centrifugation, i.e., precipitate, which is considered to have a size of 1 μm or larger and a molecular weight of several hundred kilodaltons or more. “>100 kDa” indicates 100 kDa or more and “<100 kDa” indicates 100 kDa or less.

Substance: FLFCWILMILVVLTFVVGANVEK (listed as Homo sapiens) [FLF23]
particle size [1]: particles with sizes larger than the signals of only the 1% Tween 20 solution were confirmed

insoluble fraction (precipitate) ([2]; 1% Tween 20 added after 1.5 hours in pure water): 17% | insoluble fraction (precipitate) ([2]; 1% Tween 20 added after 3 hours in pure water): 48% | insoluble fraction (precipitate) ([2]; 1% Tween 20 added immediately after suspension of SPAPP in pure water): 5% | isoelectric point [3]: 10.9 | Solubility ([4]; 0.1% trifluoroacetic acid (pH 2.0), SPAPP conc. 7.5 mg/ml): Soluble | Solubility ([4]; 1% Nonidet P40, SPAPP conc. 1~5 mg/ml): Soluble | Solubility ([4]; 1% PEG12, SPAPP conc. 1~5 mg/ml): Soluble | Solubility ([4]; 1% PEG24, SPAPP conc. 1~5 mg/ml): Soluble | Solubility ([4]; 1% PEG60 docesylether, SPAPP conc. 1~5 mg/ml): Soluble | Solubility ([4]; 1% SDS (anionic surfactant), SPAPP conc. 1~5 mg/ml): Soluble | Solubility ([4]; 1% TritonX-100, SPAPP conc. 1~5 mg/ml): Soluble | Solubility ([4]; 1% Tween20, SPAPP conc. 1~5 mg/ml): Soluble | Solubility ([4]; 1% Tween80, SPAPP conc. 1~5 mg/ml): Soluble | Solubility ([4]; 1% cholesterol-PEG (NOF CORPORATION NO. CS050), SPAPP conc. 1~5 mg/ml): Soluble | Solubility ([4]; 1% formic acid (pH 3.0), SPAPP conc. 0.5 mg/ml): Soluble | Solubility ([4]; 100% DMF, SPAPP conc. 20 mg/ml): Soluble | Solubility ([4]; 100% DMS0, SPAPP conc. 50 mg/ml): Soluble | Solubility ([4]; 100% methanol, SPAPP conc. 0.5 mg/ml): Soluble | Solubility ([4]; Phosphate buffer (PBS) (pH 7)): Insoluble | Solubility ([4]; Pure water, SPAPP conc. 0.1 mg/ml): Insoluble | Solubility ([4]; neutral aqueous solutions): completely insoluble | Solubility ([4]; neutral aqueous solutions containing polar and nonionic surfactants): soluble | Solubility ([4]; polar organic solvents): soluble | Solubility ([4]; strongly acidic aqueous solutions): soluble
Substance: MLPGLALLLLAAWTARA-OH [SPAPP]
formation of high-molecular-weight aggregates [5]: high-molecular-weight aggregates are formed with any of the surfactants
